Data: EP0917542B1, “PROCESS FOR POLYMERIZATION OF OLEFINIC MONOMERS” (E.I. DU PONT DE NEMOURS AND COMPANY, priority 1996, dated 1998)

Test: Stability in neutral aqueous dispersion, followed by 19F NMR
Type: physicochemical
Conditions: aqueous dispersion with ammonium perfluorononanoate surfactant; heated in an oil bath at 100°C for 2 hr
Procedure: A solution of 2.41 g of ammonium perfluorononanoate (surfactant) in 1-L of deionized water was processed for 5 minutes through a Microfluidizer™ Model 110T with 4.14 g of n-perfluorobutanesulfonyl chloride. The mixture was cooled by passing though a coil chilled in ice water during the processing. A clear mixture was obtained. […] A second aliquot of the solution was heated in an oil bath at 100°C for 2 hr and then analyzed by ^19F NMR. […] A more concentrated mixture was prepared by adding 10.4 g of n-perfluorobutanesulfonyl chloride to a solution of 0.5 g ammonium perfluorononanoate in 100 mL of deionized water with processing through the Microfluidizer™.

**Q.** For `O=S(=O)(Cl)C(F)(F)C(F)(F)C(F)(F)C(F)(F)F` [n-perfluorobutanesulfonyl chloride], which “19F NMR spectrum after heating (stability in a neutral aqueous mixture)” value is on record?
**A.** Its value is “essentially unchanged”.
